“And” between values parts separate entries of the source, which are not always exact repeats. Equal values may be shown once.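 Where inhibition never reached the appropriate level, the endpoint shown equals the highest concentration tested. Otherwise, values were interpolated linearly from a five-concentration, 48-hour dose response in 96-well plates. The concentration for 50% growth inhibition is given as GI50. At the TGI there is no net growth.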
Experiments:
Test in all cases: growth of human tumour cells (NCI), 48 h
SW-620 colon = system: SW-620 colon
MDA-N = system: MDA-N
MDA-MB-231 breast = system: MDA-MB-231 breast
NCI-H460 lung = system: NCI-H460 lung
MDA-MB-435 = system: MDA-MB-435
HOP-18 NSCLC = system: HOP-18 NSCLC
XF 498 CNS = system: XF 498 CNS
KM20L2 colon = system: KM20L2 colon
DLD-1 colon = system: DLD-1 colon
M19-MEL melanoma = system: M19-MEL melanoma
DMS 114 small cell lung = system: DMS 114 small cell lung

SMILES | TGI (SW-620 colon) [µM] | TGI (MDA-N) [µM] | TGI (MDA-MB-231 breast) | TGI (NCI-H460 lung) [µM] | TGI (MDA-MB-435) [µM] | TGI (HOP-18 NSCLC) [µM] | TGI (XF 498 CNS) [µM] | TGI (KM20L2 colon) [µM] | TGI (DLD-1 colon) [µM] | TGI (M19-MEL melanoma) [µM] | TGI (DMS 114 small cell lung) [µM] | also measured
COc1ccc(CC2COc3cc(OC)cc(OC)c3C2=O)cc1 (configuration not stated) | > 100 | > 100 | > 100 µM | > 100 | 18.1 |  |  |  |  |  |  | 
CC1=C2C(O)C(C(C)C(=O)N(C)C)CCC2(C)C=CC1=O (configuration not stated) | > 100 |  |  | > 100 |  | > 100 | > 100 | > 100 | > 100 | > 100 | > 100 | 
CN(C)/C=C/C(=CC=[N+](C)C)/C=C/N(C)C | > 100 |  |  | > 100 |  |  | > 100 |  | > 100 |  |  | 
CCC1C[N+]23CCc4c([nH]c5ccccc45)C2CC1CC3 (configuration not stated) | > 100 |  |  | > 100 |  |  | > 100 | > 100 | > 100 | > 100 | > 100 | 
O=C1C=C(C2OC(CO)C(O)C2O)C(=O)N1 (configuration not stated) | > 100 |  |  | > 100 |  | > 100 |  | > 100 | > 100 | > 100 | > 100 | 
Cc1n(CC(C)C)c2c([n+]1C)C(=O)c1ccccc1C2=O | 1.4 | 0.314 | 0.344 µM | 1.26 | 0.277 | 3.63 | 1.46 | 1.6 | 0.975 | 0.216 | < 0.0255 | 
Cc1ccc2c(ccc(/C=C/c3ccc(O)c4ncccc34)[n+]2C)c1 | 28.4 | > 44.9 | > 61.8 µM | 30.3 | > 52.1 | 26.4 | 16.8 | 20.1 | 38.3 | 22.6 | 4.28 | 
N#C[S-].[La+3].c1cnc2c(c1)ccc1cccnc12.c1cnc2c(c1)ccc1cccnc12.c1cnc2c(c1)ccc1cccnc12 | 27.1 |  |  |  |  | 9.46 | 9.42 | 16.4 |  | 3.69 | 5.45 | GI50 (HOP-18 NSCLC): 952 nM; GI50 (XF 498 CNS): 4.03 µM; GI50 (KM20L2 colon): 986 nM; GI50 (M19-MEL melanoma): 688 nM; GI50 (DMS 114 small cell lung): 1580 nM
CCOC(=O)Nc1cc2c(c(N)n1)N=C(c1ccc(OC)cc1)CN2 |  | 0.0014 | 0.392 µM and 0.0787 µM | 0.256 | 0.000324 |  |  |  |  |  |  | GI50 (MDA-MB-231 breast): 3.86 nM; GI50 (NCI-H460 lung): 12 nM
Cc1ccc(S(=O)(=O)Nc2cccc3c(=O)[nH]cnc23)cc1 | > 100 |  |  | > 100 |  | > 100 | > 100 | > 100 |  | > 100 | > 100 | 
CCOP(=Nc1ccc(N(C)C)cc1)(OCC)OCC |  | > 100 | > 100 µM | > 100 | > 100 |  |  |  |  |  |  | 
CC(=O)C(C(c1ccccc1)N1CCOCC1)N1CCOCC1 (configuration not stated) | > 100 | > 100 | > 100 µM | 36.3 | > 100 |  |  |  |  |  |  | 
CC1(C)[C@@H]2CC[C@]1(C)[C@H](OC(=O)CSC#N)C2 | 35.4 | > 100 | > 100 µM | > 100 | > 100 |  |  |  |  |  |  | 
O=S(=O)(O)c1ccc(N=Nc2ccc3c(S(=O)(=O)O)cccc3c2O)c2ccccc12 | > 100 | > 100 | > 100 µM |  | > 100 |  |  |  |  |  |  | 
Cc1cccc(Cl)c1NCC(O)CN1CCN(C)CC1 (configuration not stated) | > 100 | > 100 | > 100 µM | > 100 | > 100 |  |  |  |  |  |  | 
COC1OC(CS(=O)(=O)O)C(O)C(O)C1O (configuration not stated) | > 100 | > 100 |  | > 100 | > 100 |  |  |  |  |  |  | 
C=C1C(=O)OC2/C=C(\C(=O)O)CC/C=C(\C)CC(OC(=O)/C=C(\C)CC)C12 (configuration not stated) | 31.3 |  |  | 30.7 |  | 39.9 | 32.5 | 39.5 | 43.6 | 29.1 | 30.2 | 
COc1cc2c(cc1O)c(O)cc1c3cc(OC)c(OC)cc3c[n+](C)c21 | > 100 | 35.7 | > 67.9 µM | > 100 | 30.9 |  |  |  |  |  |  | 
CCCC(C)c1ccc(OCCCCCCN2CCNCC2)cc1 (configuration not stated) | 3.57 |  | 3.58 µM | 3.39 | 3.22 |  |  |  |  |  |  | GI50 (SW-620 colon): 1720 nM; GI50 (MDA-MB-231 breast): 1750 nM; GI50 (NCI-H460 lung): 1650 nM; GI50 (MDA-MB-435): 1700 nM
CN(C)CCNC(=O)c1cccc2c(=O)c3ccccc3oc12 | > 100 |  |  | > 79.5 |  | > 100 | > 93.9 | > 100 | > 100 | 56.7 | > 69.8 | 
O=C(c1ccccc1)c1ccc2n[se]nc2c1 | > 100 |  |  |  |  |  |  | > 100 | > 100 |  | 60 | 
